In patent US6825194B2, “Hexacyclic compounds” (Chugai Seiyaku Kabushiki Kaisha, priority 2001, dated 2004):
Where two headings read alike, the source gives them in different places.

Tests used:
NCI-H460 = assay: Anti-proliferative activity assay, NCI-H460; format: cell-based, human; details: NCI-H460 non small cell lung cancer cells, 4 days, WST-8, read-out: Anti-proliferative activity assay (IC50 in nM) NCI-H460 (NSCLC)
Description: (§1) Antiproliferative activity assay was carried out as follows. A single suspension of tumor cells was inoculated to the serially diluted 96-well microtestplate. Then the testplate was incubated in the 5% CO2 ambience at 37° C. for 4 days (2-3×10^3 cells/well). The degree of cell growth in a monolayer was measured by using WST-8 (Dojindo, Japan). IC50 values of drugs against tumor cells were calculated as the concentration of drug yielding 50% OD of the control growth. The IC50 value measures the drug concentration for 50% of the growth of tumor cells in vitro as compared to the control.
(§2) The anti-tumor activities of hexacyclic compounds of the formula [1A] and [1B] against in vitro growth of human tumor cell lines, HCT116 and DLD-1 of colorectal cancer (CRC) and QG56 and NCI-H460 of non small cell lung cancer (NSCLC) are summarized in Table 1. These cell lines are commercially available via the American Type Culture Collection (ATTC).

QG56 = assay: Anti-proliferative activity assay, QG56; format: cell-based, human; details: QG56 non small cell lung cancer cells, 4 days, WST-8, read-out: Anti-proliferative activity assay (IC50 in nM) QG56 (NSCLC)
Description: as §1, §2

DLD-1 = assay: Anti-proliferative activity assay, DLD-1; format: cell-based, human; details: DLD-1 colorectal cancer cells, 4 days, WST-8, read-out: Anti-proliferative activity assay (IC50 in nM) DLD-1 (CRC)
Description: as §1, §2

HCT116 = assay: Anti-proliferative activity assay, HCT116; format: cell-based, human; details: HCT116 colorectal cancer cells, 4 days, WST-8, read-out: Anti-proliferative activity assay (IC50 in nM) HCT116 (CRC)
Description: as §1, §2

[1] = converted to the inactive carboxylate form; cited from earlier work

Structure (SMILES) | IC50 (NCI-H460; Homo sapiens, 96 h) [nM] | IC50 (QG56; Homo sapiens, QG-56, 96 h) [nM] | IC50 (DLD-1; Homo sapiens, 96 h) [nM] | IC50 (HCT116; Homo sapiens, HCT-116, 96 h) [nM] | IC50 (NCI-H460) [nM] | IC50 (QG56) [nM] | IC50 (DLD-1) [nM] | IC50 (HCT116) [nM] | half-life in plasma [1]
CCCCCN1C(C)=Nc2cccc3nc4c(c1c23)Cn1c-4cc2c(c1=O)COC(=O)[C@]2(O)CC [Compound E, (9S)-9-ethyl-9-hydroxy-2-methyl-1-pentyl-1H,12H-pyrano[3″,4″:6′,7′]indolizino[1′,2′:6,5]pyrido[4,3,2-de]quinazoline-10,13(9H,15H)-dione] | 7.9 | 15 | 15 | 4.5 |  |  |  |  | 
CC[C@@]1(O)C(=O)OCc2c1cc1n(c2=O)Cc2c-1nc1cccc3c1c2N(CCc1ccccc1)C(=O)N3 [Compound A, (9S)-9-ethyl-9-hydroxy-1-phenethyl-1H,12H-pyrano[3″,4″:6′,7′]indolizino[1′,2′:6,5]pyrido[4,3,2-de]quinazoline-2,10,13(3H,9H,15H)-trione] | 6.5 | 7.1 | 11 | 1.9 |  |  |  |  | 
CCc1c2c(nc3ccc(O)cc13)-c1cc3c(c(=O)n1C2)COC(=O)[C@]3(O)CC [SN-38, 7-ethyl-10-hydroxycamptothecin, reference compound] |  |  |  |  | 21 | 27 | 53 | 6.9 | 
CCCCCN1C=Nc2cccc3nc4c(c1c23)Cn1c-4cc2c(c1=O)COC(=O)[C@]2(O)CC [Compound B, (9S)-9-ethyl-9-hydroxy-1-pentyl-1H,12H-pyrano[3″,4″:6′,7′]indolizino[1′,2′:6,5]pyrido[4,3,2-de]quinazoline-10,13(9H,15H)-dione] | 7 | 7.7 | 23 | 6.1 |  |  |  |  | 
CC[C@@]1(O)C(=O)OCc2c1cc1n(c2=O)Cc2c-1nc1cccc3c1c2NC(=S)N3CCC(C)C [Compound D, (9S)-9-ethyl-9-hydroxy-1-(3-methylbutyl)-2(3H)-thioxo-1H,12H-pyrano[3″,4″:6′,7′]indolizino[1′,2′:6,5]pyrido[4,3,2-de]quinazoline-10,13(9H,15H)-dione] |  |  |  |  | 10 | 17 | 15 | 5.1 | 
CC[C@@]1(O)C(=O)OCc2c1cc1n(c2=O)Cc2cc3ccccc3nc2-1 [camptothecin, 4(S)-ethyl-4-hydroxy-1H-pyrano[3′,4′:6,7]indolizino[1,2-b]quinoline-3,14(4H,12H)-dione] |  |  |  |  |  |  |  |  | less than 30 min
CC[C@@]1(O)C(=O)OCc2c1cc1n(c2=O)Cc2c-1nc1cccc3c1c2N(CCC(C)C)C(CO)=N3 [Compound F, (9S)-9-ethyl-9-hydroxy-2-hydroxymethyl-1-(3-methylbutyl)-1H,12H-pyrano[3″,4″:6′,7′]indolizino[1′,2′:6,5]pyrido[4,3,2-de]quinazoline-10,13(9H,15H)-dione] | 4.8 | 7.4 | 12 | 3.1 |  |  |  |  | 
